Assay results: patent US8993593B2, “N-(4-(6-fluoro-3,4-dihydroisoquinolin-2(1H)-yl)-2,6-dimethylphenyl)-3,3-dimethylbutanamide as potassium channel modulators” (Valeant Pharmaceuticals International, priority 2006, dated 2015)

Assays:
[1] = Open field test (acute toxicity); conditions: Sprague-Dawley, in vivo, oral, rat, read-out: TD50, motor impairment
From the text: Before MES test, compound treated rats are visually observed for acute toxicity signs for approximately one minute in the open field test. Here, rats are gently placed into a plexiglass enclosure and are monitored for behavior consistent with toxicity including ataxia, trembling, hypoactivity (including failure to seek the walls), hypersensitivity, lack of exploratory behavior and lack of avoidance of the open area. […] Motor impairment, as judged by this test was not observed in the rat model and generated a TD50 value of greater than 5 mg/kg.

KCNQ4 = KCNQ4 (Homo sapiens, UniProt P56696); test: Two-electrode voltage-clamp in Xenopus laevis oocytes, KCNQ4; type: cell-based
Method: Female Xenopus laevis extracted ovaries were purchased from eNASCO (LM00935MX, eNASCO Fort Atkinson, Wis.). […] Approximately 50 nl cRNA (about 50 ng) was injected for KCNQ1, KCNQ4, and KCNQ5 using a Nanoject microinjector (Drummond, Broomall, Pa., USA). For co-expression of KCNQ2 and KCNQ3 and of KCNQ1 and KCNE1, cRNA's were mixed in equal molar ratios before injection of approximately 50 nl. […] Oocytes were kept in Culture Barth solution at 19° C. which was changed daily and currents were recorded after 3 to 5 days.
KCNQ channel currents expressed in Xenopus laevis oocytes were recorded using a two-electrode voltage-clamp. […] The oocytes were placed in custom built perfusion chambers connected to a continuous flow system and impaled with a current electrode and a voltage-clamp electrode pulled from borosilicate glass on a Flaming/Brown Micropipette Puller (Sutter Instruments Co, Novato, Calif., USA).
All compounds were dissolved in DMSO to obtain concentrated stock solutions. On the day of electrophysiological experiments the stock solutions were thawed and diluted in recording solution to their final concentrations. The final DMSO concentration never exceeded 0.1%. Compound delivery was performed using a custom built multi-barrel apparatus connected to the flow system.
Data were acquired by means of an Axograph X software (Axograph Scientific, Sydney, AU) and analyzed using Graph Pad Prism (GraphPad Software Inc., CA, USA). […]
After steady channel current was recorded in the presence of Retigabine at its EC75, recorded oocyte was washed with the recording solution until its steady current returned to its normal level without the presence of any drugs. Then the channel steady current was recorded in the presence of the test compound at its EC75. The percent efficacy was then expressed as: % efficacy=(C2/C 1)×100 where C2 is the recorded steady current in the presence of follow-on compound at its EC75 and C1 is the recorded steady current in the presence of Retigabine at its EC75.

hERG [2] = biological target: T1, hERG (Homo sapiens, UniProt Q12809); test: in vitro
T1 sequence (Q12809 whole entry): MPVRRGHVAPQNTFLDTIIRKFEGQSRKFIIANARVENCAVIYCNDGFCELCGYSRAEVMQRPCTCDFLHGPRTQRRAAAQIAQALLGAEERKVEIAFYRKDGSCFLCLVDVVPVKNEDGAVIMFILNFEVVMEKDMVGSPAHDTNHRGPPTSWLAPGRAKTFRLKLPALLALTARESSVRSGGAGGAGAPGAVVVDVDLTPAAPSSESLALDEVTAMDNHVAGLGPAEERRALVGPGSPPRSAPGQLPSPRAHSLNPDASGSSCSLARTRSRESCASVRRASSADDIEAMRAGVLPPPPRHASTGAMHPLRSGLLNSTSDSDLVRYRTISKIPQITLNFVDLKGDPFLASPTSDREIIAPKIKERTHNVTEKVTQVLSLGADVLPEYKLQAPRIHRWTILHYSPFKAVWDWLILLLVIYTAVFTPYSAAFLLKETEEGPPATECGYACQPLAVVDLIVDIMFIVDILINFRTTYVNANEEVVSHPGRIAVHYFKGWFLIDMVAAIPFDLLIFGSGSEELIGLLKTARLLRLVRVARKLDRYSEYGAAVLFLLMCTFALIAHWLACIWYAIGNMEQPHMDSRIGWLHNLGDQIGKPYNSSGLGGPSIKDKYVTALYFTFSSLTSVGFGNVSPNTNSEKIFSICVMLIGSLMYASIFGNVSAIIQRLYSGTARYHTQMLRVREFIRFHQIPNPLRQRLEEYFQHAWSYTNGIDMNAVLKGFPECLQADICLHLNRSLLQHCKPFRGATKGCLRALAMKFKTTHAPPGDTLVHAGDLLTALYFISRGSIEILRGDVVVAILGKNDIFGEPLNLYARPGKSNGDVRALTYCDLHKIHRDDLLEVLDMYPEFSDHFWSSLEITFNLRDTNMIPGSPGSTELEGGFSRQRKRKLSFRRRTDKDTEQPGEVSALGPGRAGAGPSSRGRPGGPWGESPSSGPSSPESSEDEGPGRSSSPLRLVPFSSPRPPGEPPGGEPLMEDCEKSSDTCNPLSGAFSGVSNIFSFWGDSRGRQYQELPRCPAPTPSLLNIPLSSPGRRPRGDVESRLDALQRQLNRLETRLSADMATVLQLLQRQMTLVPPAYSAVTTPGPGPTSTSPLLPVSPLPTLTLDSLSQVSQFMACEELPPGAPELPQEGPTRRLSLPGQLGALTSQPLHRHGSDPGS

hERG [3] = biological target: T1, hERG; test: cell-based

In the case of Cc1cc(N2CCc3cc(F)ccc3C2)cc(C)c1NC(=O)CC(C)(C)C [compound A, N-[4-(6-fluoro-3,4-dihydro-1H-isoquinolin-2-yl)-2,6-dimethylphenyl]-3,3-dimethyl butanamide], the TD50 at 1 min [1] is reported as greater than 5 mg/kg, the EC50 (KCNQ4) is reported as 630 nM and the “KCNQ4 Efficacy Relative to Retigabine (%)” value (KCNQ4; oocyte expression, at EC75) is reported as 100%. It also gave an inhibition at 30 µM (hERG [2]) of -0.1% and an EC50 (hERG [3]) greater than 30000 nM.
